Earlier results in US20140329781A1, “METHODS FOR TREATING CARDIOVASCULAR DISORDER” (WOCKHARDT LIMITED, priority 2011, published 2014).

Legend:
albumin = albumin (Homo sapiens, UniProt P02768)
[1] = water

Sequence of albumin (P02768 25-609, species assumed): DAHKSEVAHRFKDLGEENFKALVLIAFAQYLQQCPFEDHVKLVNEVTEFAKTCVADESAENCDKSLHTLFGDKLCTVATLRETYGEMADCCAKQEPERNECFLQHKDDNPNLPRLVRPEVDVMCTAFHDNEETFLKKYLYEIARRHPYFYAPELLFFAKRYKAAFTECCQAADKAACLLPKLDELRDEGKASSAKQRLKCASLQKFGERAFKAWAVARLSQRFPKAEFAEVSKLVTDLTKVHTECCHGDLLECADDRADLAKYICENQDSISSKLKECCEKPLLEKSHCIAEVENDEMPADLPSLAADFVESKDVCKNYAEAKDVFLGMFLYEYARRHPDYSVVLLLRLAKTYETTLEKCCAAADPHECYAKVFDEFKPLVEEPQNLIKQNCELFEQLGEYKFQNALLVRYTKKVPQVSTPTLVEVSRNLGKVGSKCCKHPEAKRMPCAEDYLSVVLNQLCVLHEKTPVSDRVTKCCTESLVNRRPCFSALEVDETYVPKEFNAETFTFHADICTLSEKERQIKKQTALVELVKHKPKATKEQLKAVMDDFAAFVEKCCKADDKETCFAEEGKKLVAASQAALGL

| SMILES | bioavailability (in words) (extensive first pass metabolism in the liver) | protein bound to albumin (albumin) | solubility (in words) [1] | bioavailability (incomplete due to extensive first pass metabolism) |
| --- | --- | --- | --- | --- |
| COC(=O)[C@H](c1ccccc1Cl)N1CCc2sccc2C1 [Clopidogrel] | low | 94-98% | poorly water-soluble | – |
| COCCc1ccc(OCC(O)CNC(C)C)cc1 (centres unmarked) [Metoprolol] | – | – | highly soluble | about 50% |
